Source: patent publication US10562909B2, “Fused quadracyclic compounds, compositions and uses thereof” (Tabomedex Biosciences, LLC, priority 2016, dated 2020)

The compounds below were run against MAPKAPK2 (Homo sapiens, UniProt P49137) (assay: MK2 Enzymatic Assay). Conditions: 0.5 nM MAPKAPK2, 3 μM ATP, 2 μM Ser/Thr4 peptide, 23° C., values given as concentration bins.
Format: biochemical
Procedure: Briefly, 5 μL of 2× (4 μM) 100% phosphorylation peptide was delivered into the control wells of a 384-well assay plate. 5 μL of 2× (1 nM) MAPKAPK2 and 2× peptide (4 μM) mixture in assay buffer was dispensed to remaining columns of assay plate using Eppendorf electronic multiple channel pipette. The assay plate was incubated for 20 minutes. 5 μL of 2× ATP (6 μM) in assay buffer was dispensed to each well and then the assay plate was lightly centrifuged. The assay plate was incubated for an additional 120 minutes.
5 μL of development reagent A was dispensed to all wells using Eppendorf electronic multiple channel pipette. After incubating the development reaction for 120 min, plates were read on a Perkin Elmer Envision instrument.
Percent phosphorylation was calculated using the following formula:
[formula] Where • C100%=Average Coumarin emission signal of the 100% Phos. Control • C0%=Average Coumarin emission signal of the 0% Phos. Control • F100%=Average Fluorescein emission signal of the 100% Phos. Control • F0%=Average Flurescein emission signal of the 0% Phos. Control

Chain of MAPKAPK2 (P49137 whole entry, species assumed): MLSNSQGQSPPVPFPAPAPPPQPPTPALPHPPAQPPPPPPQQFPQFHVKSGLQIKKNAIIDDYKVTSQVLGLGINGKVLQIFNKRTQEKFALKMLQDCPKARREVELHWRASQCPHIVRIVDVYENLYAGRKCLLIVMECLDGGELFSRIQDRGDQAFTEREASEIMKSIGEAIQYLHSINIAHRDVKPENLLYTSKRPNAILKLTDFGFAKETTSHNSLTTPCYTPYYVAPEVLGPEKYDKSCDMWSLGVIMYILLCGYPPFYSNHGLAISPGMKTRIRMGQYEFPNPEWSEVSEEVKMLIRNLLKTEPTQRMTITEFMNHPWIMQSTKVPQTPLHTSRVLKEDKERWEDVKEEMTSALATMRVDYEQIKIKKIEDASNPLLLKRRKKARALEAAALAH

Compound | IC50 [nM]
CN(C)C[C@H]1CN(c2ccc3c(c2)Cn2cc(-c4ccc(C#N)cc4)cc2-c2nncn2-3)C[C@H]1O [Compound 81, 4-(7-((3S,4S)-3-((dimethylamino)methyl)-4-hydroxypyrrolidin-1-yl)-9H-benzo[e]pyrrolo[1,2-a][1,2,4]triazolo[3,4-c][1,4]diazepin-12-yl)benzonitrile] | < 50
CN(C)C[C@@H]1CN(c2ccc3c(c2)Cn2cc(-c4ccc(C#N)cc4)cc2-c2nncn2-3)C[C@@H]1O [Compound 82, 4-(7-((3R,4R)-3-((dimethylamino)methyl)-4-hydroxypyrrolidin-1-yl)-9H-benzo[e]pyrrolo[1,2-a][1,2,4]triazolo[3,4-c][1,4]diazepin-12-yl)benzonitrile] | < 50
C[C@H](CO)NC[C@H]1CCN(c2ccc3c(c2)Cn2cc(-c4ccc(C#N)cc4)cc2-c2nncn2-3)C1 [Compound 85, 4-(7-((R)-3-((((R)-1-hydroxypropan-2-yl)amino)methyl)pyrrolidin-1-yl)-9H-benzo[e]pyrrolo[1,2-a][1,2,4]triazolo[3,4-c][1,4]diazepin-12-yl)benzonitrile] | < 50
CN(C)C[C@@H]1CN(c2ccc3c(c2)Cn2cc(-c4ccc(C#N)cc4)cc2-c2nncn2-3)C[C@H]1O [Compound 108, 4-(7-((3R,4S)-3-((dimethylamino)methyl)-4-hydroxypyrrolidin-1-yl)-9H-benzo[e]pyrrolo[1,2-a][1,2,4]triazolo[3,4-c][1,4]diazepin-12-yl)benzonitrile] | < 50
CN(C)C[C@H]1CN(c2ccc3c(c2)Cn2cc(-c4ccc(C#N)cc4)cc2-c2nncn2-3)C[C@@H]1O [Compound 109, 4-(7-((3S,4R)-3-((dimethylamino)methyl)-4-hydroxypyrrolidin-1-yl)-9H-benzo[e]pyrrolo[1,2-a][1,2,4]triazolo[3,4-c][1,4]diazepin-12-yl)benzonitrile] | < 50
N#Cc1ccc(-c2cc3n(c2)Cc2cc(N4CC[C@H](CN5CCC(O)CC5)C4)ccc2-n2cnnc2-3)cc1 [Compound 111, (R)-4-(7-(3-((4-hydroxypiperidin-1-yl)methyl)pyrrolidin-1-yl)-9H-benzo[e]pyrrolo[1,2-a] [1,2,4]triazolo[3,4-c][1,4]diazepin-12-yl)benzonitrile] | < 50
CN1CC2(CCN(c3ccc4c(c3)Cn3cc(-c5ccc(C#N)cc5)cc3-c3nccn3-4)C2)C1 [Compound 125, 4-(7-(2-methyl-2,6-diazaspiro[3.4]octan-6-yl)-9H-benzo[e]imidazo[2,1-c]pyrrolo[1,2-a][1,4]diazepin-12-yl)benzonitrile] | < 50

Next, values leading:

IC50 [nM] | Compound
50 to 100 | CN(C)[C@@H]1CN(c2ccc3c(c2)Cn2cc(-c4ccc(C#N)cc4)cc2-c2nncn2-3)C[C@@H]1O [Compound 83, 4-(7-((3R,4S)-3-(dimethylamino)-4-hydroxypyrrolidin-1-yl)-9H-benzo[e]pyrrolo[1,2-a] [1,2,4]triazolo[3,4-c][1,4]diazepin-12-yl)benzonitrile]
< 50 | C[C@@H](CO)NC[C@@H]1CCN(c2ccc3c(c2)Cn2cc(-c4ccc(C#N)cc4)cc2-c2nncn2-3)C1 [Compound 86, 4-(7-((S)-3-((((S)-1-hydroxypropan-2-yl)amino)methyl)pyrrolidin-1-yl)-9H-benzo[e]pyrrolo[1,2-a][1,2,4]triazolo[3,4-c][1,4]diazepin-12-yl)benzonitrile]
100 to 200 | C[C@@H](CO)N(C)C1CCN(c2ccc3c(c2)Cn2cc(-c4ccc(C#N)cc4)cc2-c2nncn2-3)CC1 [Compound 104, (S)-4-(7-(4-((1-hydroxypropan-2-yl)(methyl)amino)piperidin-1-yl)-9H-benzo[e]pyrrolo[1,2-a][1,2,4]triazolo[3,4-c][1,4]diazepin-12-yl)benzonitrile]
< 50 | N#Cc1ccc(-c2cc3n(c2)Cc2cc(N4CC[C@@H](CN5CCC(O)CC5)C4)ccc2-n2cnnc2-3)cc1 [Compound 110, (S)-4-(7-(3-((4-hydroxypiperidin-1-yl)methyl)pyrrolidin-1-yl)-9H-benzo[e]pyrrolo[1,2-a] [1,2,4]triazolo[3,4-c][1,4]diazepin-12-yl)benzonitrile]
